Experimental data as given in PMC9610285 (Pharmaceutics, 2022).
Where two headings read alike, the source gives them in different places.

Details: 1 mg single oral dose, fasting
Method: The data used in this work were obtained from four bioequivalence clinical trials conducted at the Clinical Trials Unit of the Hospital Universitario de La Princesa (UECHUP) (EUDRA-CT IDs: 2012-004433-17, 2013-002159-14, 2014-001123-77 and 2021-000315-23). […] The reference formulation (R) in all cases was Azilect® 1 mg tablets (TEVA Pharmaceuticals Europe B.V.), which was compared against different test formulations (T), all of them 1 mg tablets, except in clinical trial 3, whose test formulation was orodispersible 1 mg. The four bioequivalence trials had two periods and two sequences (TR and RT). In the first period, the volunteers randomly were administered one of the two formulations and, in the following period, after a 7-day washout period, the opposite formulation. All of them were reviewed and approved by Independent Ethics Board (IEB) of the Hospital Universitario de La Princesa, and by the Spanish Drug Agency (AEMPS). In addition, they were performed in accordance with the guidelines of the International Conference on Harmonization for Good Clinical Practice (ICH-GCP), current Spanish legislation and the Revised Declaration of Helsinki. The pharmacogenetic study (SFC-FG-2020-1) was likewise approved by the IEB of Hospital Universitario de La Princesa (registry number 4176, 9 July 2020).
In each period, the drug was administered under fasting conditions, which were maintained until 5 h after drug administration. Each subject provided 20 or 21 blood samples (depending on the clinical trial) that were extracted by BD Vacutainer® vacuum system with EDTA K2 tubes for analysis at different times between 0 h (before receiving the drug) and up to 12 h after drug intake. […] A high-performance liquid chromatography coupled to triple quadrupole mass spectrometry (HPLC-MS/MS) analytical method was used. The latter was validated according to European regulations for bioequivalence assessment, with a lower limit of quantification (LLOQ) of 10 pg/mL and a calibration range of 10–10,000 pg/mL.
Pharmacokinetic parameters were calculated with WinNonlin Professional (Scientific Consulting, Inc., Cary, NC, USA) following a non-compartmental model. The area under the curve (AUC0-t), was obtained by the trapezoidal method. The extrapolation to infinity (AUC0-∞) was determined by the sum of two partial AUCs: AUCt-∞ calculated by the ratio Ct/k, where Ct is the last detectable concentration and k the elimination slope; plus AUC0-t. Cmax and tmax were directly obtained from the plasma time-concentration curves. t1/2 was calculated as Ln2/k. Plasma clearance adjusted for bioavailability (Cl/F) was calculated as dose/AUC. Finally, the volume of distribution adjusted for bioavailability (Vd/F) was calculated by dividing Cl/F by k.
The SPSS software (v23.0, SPSS Inc., Chicago, IL, USA) was used for statistical analyses. AUC0-∞, and Cmax were divided by the dose/weight (DW) ratio to correct sex-related variability related to a varying weight. For the same purpose, Vd/F and Cl/F were divided by weight. With the purpose of normalizing their distributions, all pharmacokinetic parameters were logarithmically transformed for statistical analysis. Initially, a univariate analysis was conducted of the demographic characteristics according to sex and ethnicity, and of the pharmacokinetic parameters or ADR incidence based on sex, biogeographical group (hereinafter, “ethnicity”), genotypes and phenotypes. T-tests were used for the comparison of means for variables with two categories and ANOVA tests for variables with three or more categories, followed by a Bonferroni post-hoc. The Shapiro–Wilk test was used to address the normality of demographic characteristics. For those not following a normal distribution, the nonparametric Kruskal–Wallis test was used.

[1] = CYP1A2 *1N/*1K, *1N/*1L, *1N/*1L and *1N/*1G merged, n=4

C#CCN[C@@H]1CCc2ccccc21 [rasagiline, Rasagiline]
lower tmax value, ABCC2 rs2273697 A/A vs G allele carriers: approximately 50% | AUC0-∞/DW (ABCB1 rs1045642 A/A, n=23): 275.48 ± 59.65 ng·kg·h/mL/mg | Cmax/DW (ABCB1 rs1045642 A/A, n=23): 438.76 ± 152.32 ng·kg/mL/mg | t1/2 (ABCB1 rs1045642 A/A, n=23): 2.58 ± 0.63 h | tmax (ABCB1 rs1045642 A/A, n=23): 0.50 ± 0.21 h | AUC0-∞/DW (ABCB1 rs1045642 G/A, n=61): 273.00 ± 83.60 ng·kg·h/mL/mg | Cmax/DW (ABCB1 rs1045642 G/A, n=61): 426.48 ± 179.87 ng·kg/mL/mg | t1/2 (ABCB1 rs1045642 G/A, n=61): 2.63 ± 1.04 h | tmax (ABCB1 rs1045642 G/A, n=61): 0.51 ± 0.27 h | AUC0-∞/DW (ABCB1 rs1045642 G/G, n=34): 244.10 ± 63.87 (pm = 0.012) h*ng*kg/mL*mg | Cmax/DW (ABCB1 rs1045642 G/G, n=34): 359.70 ± 127.40 ng·kg/mL/mg | t1/2 (ABCB1 rs1045642 G/G, n=34): 2.83 ± 0.73 h | tmax (ABCB1 rs1045642 G/G, n=34): 0.47 ± 0.19 h | AUC0-∞/DW (ABCC2 rs2273697 A/A, n=3): 350.15 ± 86.34 ng·kg·h/mL/mg | Cmax/DW (ABCC2 rs2273697 A/A, n=3): 579.28 ± 133.19 ng·kg/mL/mg | t1/2 (ABCC2 rs2273697 A/A, n=3): 3.01 ± 0.49 h | tmax (ABCC2 rs2273697 A/A, n=3): 0.22 ± 0.09 (pu = 0.005, pm = 0.001) ^& h | AUC0-∞/DW (ABCC2 rs2273697 G/A, n=42): 264.50 ± 74.33 ng·kg·h/mL/mg | Cmax/DW (ABCC2 rs2273697 G/A, n=42): 411.51 ± 152.39 ng·kg/mL/mg | t1/2 (ABCC2 rs2273697 G/A, n=42): 2.59 ± 0.90 h | tmax (ABCC2 rs2273697 G/A, n=42): 0.48 ± 0.19 h | AUC0-∞/DW (ABCC2 rs2273697 G/G, n=73): 262.04 ± 73.57 ng·kg·h/mL/mg | Cmax/DW (ABCC2 rs2273697 G/G, n=73): 401.58 ± 167.92 ng·kg/mL/mg | t1/2 (ABCC2 rs2273697 G/G, n=73): 2.71 ± 0.89 h | tmax (ABCC2 rs2273697 G/G, n=73): 0.51 ± 0.26 h | AUC0-∞/DW (COMT rs4680 A/A, n=26): 236.37 ± 68.34 (pu = 0.018, pm = 0.008) h*ng*kg/mL*mg | Cmax/DW (COMT rs4680 A/A, n=26): 355.69 ± 168.61 (pu = 0.012, pm = 0.035) ng*kg/mL*mg | t1/2 (COMT rs4680 A/A, n=26): 2.74 ± 1.00 h | tmax (COMT rs4680 A/A, n=26): 0.50 ± 0.22 h | AUC0-∞/DW (COMT rs4680 G/A, n=56): 285.72 ± 81.43 ng·kg·h/mL/mg | Cmax/DW (COMT rs4680 G/A, n=56): 450.03 ± 166.19 ng·kg/mL/mg | t1/2 (COMT rs4680 G/A, n=56): 2.71 ± 0.95 h | tmax (COMT rs4680 G/A, n=56): 0.47 ± 0.18 h | AUC0-∞/DW (COMT rs4680 G/G, n=36): 253.96 ± 59.13 ng·kg·h/mL/mg | Cmax/DW (COMT rs4680 G/G, n=36): 385.75 ± 140.56 ng·kg/mL/mg | t1/2 (COMT rs4680 G/G, n=36): 2.58 ± 0.68 h | tmax (COMT rs4680 G/G, n=36): 0.52 ± 0.32 h | AUC0-∞/DW (CYP1A2 *1B/*1B, n=6): 226.81 ± 52.00 ng·kg·h/mL/mg | Cmax/DW (CYP1A2 *1B/*1B, n=6): 411.84 ± 85.38 ng·kg/mL/mg | t1/2 (CYP1A2 *1B/*1B, n=6): 1.87 ± 0.6 h | tmax (CYP1A2 *1B/*1B, n=6): 0.42 ± 0.18 h | AUC0-∞/DW (CYP1A2 *1B/*1F, n=36): 265.27 ± 80.68 ng·kg·h/mL/mg | Cmax/DW (CYP1A2 *1B/*1F, n=36): 426.5 ± 183.44 ng·kg/mL/mg | t1/2 (CYP1A2 *1B/*1F, n=36): 2.66 ± 0.9 h | tmax (CYP1A2 *1B/*1F, n=36): 0.44 ± 0.19 h | AUC0-∞/DW (CYP1A2 *1B/*1L, n=4): 275.25 ± 108.77 ng·kg·h/mL/mg | Cmax/DW (CYP1A2 *1B/*1L, n=4): 392.87 ± 133.43 ng·kg/mL/mg | t1/2 (CYP1A2 *1B/*1L, n=4): 3.32 ± 1.62 h | tmax (CYP1A2 *1B/*1L, n=4): 0.46 ± 0.16 h | AUC0-∞/DW (CYP1A2 *1B/*1N, n=5): 256.33 ± 116.11 ng·kg·h/mL/mg | Cmax/DW (CYP1A2 *1B/*1N, n=5): 327.66 ± 320.93 ng·kg/mL/mg | t1/2 (CYP1A2 *1B/*1N, n=5): 3 ± 0.78 h | tmax (CYP1A2 *1B/*1N, n=5): 0.6 ± 0.28 h | AUC0-∞/DW (CYP1A2 *1F/*1F, n=38): 263.28 ± 60.08 ng·kg·h/mL/mg | Cmax/DW (CYP1A2 *1F/*1F, n=38): 403.23 ± 139.11 ng·kg/mL/mg | t1/2 (CYP1A2 *1F/*1F, n=38): 2.69 ± 0.82 h | tmax (CYP1A2 *1F/*1F, n=38): 0.51 ± 0.21 h | AUC0-∞/DW (CYP1A2 *1J/*1N, n=5): 275.39 ± 91.37 ng·kg·h/mL/mg | Cmax/DW (CYP1A2 *1J/*1N, n=5): 435.74 ± 117.78 ng·kg/mL/mg | t1/2 (CYP1A2 *1J/*1N, n=5): 2.15 ± 0.83 h | tmax (CYP1A2 *1J/*1N, n=5): 0.43 ± 0.09 h | AUC0-∞/DW (CYP1A2 *1L/*1F, n=11): 285.81 ± 77.84 ng·kg·h/mL/mg | Cmax/DW (CYP1A2 *1L/*1F, n=11): 389.59 ± 138.34 ng·kg/mL/mg | t1/2 (CYP1A2 *1L/*1F, n=11): 2.55 ± 1.07 h | tmax (CYP1A2 *1L/*1F, n=11): 0.64 ± 0.48 h | AUC0-∞/DW (CYP1A2 *1L/*1L, n=6): 301.28 ± 89.3 ng·kg·h/mL/mg | Cmax/DW (CYP1A2 *1L/*1L, n=6): 518.16 ± 158.15 ng·kg/mL/mg | t1/2 (CYP1A2 *1L/*1L, n=6): 3.06 ± 0.38 h | tmax (CYP1A2 *1L/*1L, n=6): 0.53 ± 0.17 h | AUC0-∞/DW [1]: 220.53 ± 87.92 ng·kg·h/mL/mg | Cmax/DW [1]: 355.79 ± 242.1 ng·kg/mL/mg | t1/2 [1]: 2.94 ± 0.69 h | tmax [1]: 0.5 ± 0.14 h | AUC0-∞/DW (CYP2C19 µM, n=3): 205.53 ± 82.32 ng·kg·h/mL/mg | Cmax/DW (CYP2C19 µM, n=3): 347.93 ± 233.78 ng·kg/mL/mg | t1/2 (CYP2C19 µM, n=3): 1.75 ± 0.67 h
